Results as given in ChEMBL document CHEMBL5325491, “Small-Molecule Hydrophobic Tagging: A Promising Strategy of Druglike Technology for Targeted Protein Degradation” (J Med Chem, 2023).
Blank lines part the entries; values can stand above or below the molecule they belong to. Starred links: 1 amine or outer side, 2 acyl side, 3 side chain; linkers in the order of their positions; H or OH if unused. Non-standard residues stand in square brackets, D forms with d. Residues, ends and D or L forms follow the SMILES beside them. *: point of attachment. Adamantane1carbonyl = O=C(C12CC3CC(CC(C3)C1)C2)*; X1 = O=C(C12CC3CC(CC(N[*:1])(C3)C1)C2)[*:2]

Legend:
NCI-H3122 = test: Anticancer activity against human NCI-H3122 cells xenografted in mouse assessed as tumor growth inhibition at 20 mg/kg, po administered once every two days for 3 weeks relative to control; format: functional; details: NCI-H3122, 504 h, read-out: TGI
[1] = molecular target: ALK tyrosine kinase receptor (Homo sapiens, UniProt Q9UM73); test: Induction of ALK (unknown origin) degradation
HCC70 = test: Anticancer activity against EZH2 dependent human HCC70 cells assessed as cell growth inhibition by MTT assay; format: functional
HCC1954 = test: Anticancer activity against EZH2 dependent human HCC1954 cells assessed as cell growth inhibition by MTT assay; format: functional
HCC1187 = test: Anticancer activity against EZH2 dependent human HCC1187 cells assessed as cell growth inhibition by MTT assay; format: functional
KARPAS-422 = test: Anticancer activity against EZH2 dependent human KARPAS-422 cells assessed as cell growth inhibition by MTT assay; format: functional
SU-DHL-8 = test: Anticancer activity against EZH2 dependent human SU-DHL-8 cells assessed as cell growth inhibition by MTT assay; format: functional
MCF7 = test: Anticancer activity against EZH2 dependent human MCF7 cells assessed as cell growth inhibition by MTT assay; format: functional
BT-549 = test: Anticancer activity against EZH2 dependent human BT-549 cells assessed as cell growth inhibition by MTT assay; format: functional
[2] = Antiproliferative activity against HER3 dependent human PC9 Gefitinib-resistant 4 (GR4) cell assessed as cell viability by CellTiter-Glo Luminescent Assay; format: functional, cell-based
OVCAR-8 = test: Antiproliferative activity against HER3 dependent human OVCAR-8 cells assessed as cell viability by CellTiter-Glo Luminescent Assay; format: functional, cell-based
[3] = Antiproliferative activity against HER3 dependent human HCC827 Gefitinib-resistant 6 (GR6) cell assessed as cell viability by CellTiter-Glo Luminescent Assay; format: functional, cell-based
[4] = molecular target: T1, Dihydrofolate reductase (Escherichia coli) (UniProt P0ABQ4); test: Induction of Escherichia coli DHFR degradation in […] cells at 80 uM measured after 4 hrs; format: cell-based
T1 sequence (whole entry): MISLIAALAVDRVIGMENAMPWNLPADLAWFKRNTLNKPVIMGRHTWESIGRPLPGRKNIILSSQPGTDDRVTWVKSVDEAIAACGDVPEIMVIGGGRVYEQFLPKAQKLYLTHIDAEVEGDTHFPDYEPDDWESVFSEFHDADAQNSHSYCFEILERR

[5] = molecular target: T2, Glutathione S-transferase A1 (Homo sapiens) (UniProt P08263); test: Induction of GSTAlpha1 degradation in […] cells at 40 uM measured after 4 hrs; format: cell-based
T2 sequence (whole entry): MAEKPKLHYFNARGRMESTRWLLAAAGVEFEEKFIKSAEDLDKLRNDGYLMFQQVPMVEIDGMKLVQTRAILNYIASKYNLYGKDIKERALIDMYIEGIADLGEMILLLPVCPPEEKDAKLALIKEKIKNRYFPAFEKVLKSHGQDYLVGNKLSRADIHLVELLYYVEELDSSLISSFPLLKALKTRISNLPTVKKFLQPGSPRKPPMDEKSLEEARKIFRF

[6] = molecular target: T2, Glutathione S-transferase A1 (Homo sapiens); test: Induction of GSTAlpha1 degradation in human HeLa cells at 80 uM measured after 4 hrs relative to control; format: cell-based
[7] = molecular target: RAC-alpha serine/threonine-protein kinase (Homo sapiens, UniProt P31749); test: Induction of Akt1 (unknown origin) degradation
[8] = Induction of Akt2 (unknown origin) degradation; parameters: species or system Homo sapiens
PC-9 = test: Anticancer activity against human PC-9 cells xenografted in NSG mouse assessed as tumor growth inhibition at 20 mg/kg, ip administered once every two days for 14 days relative to control; format: functional; details: PC-9, 336 h, time 14 day, read-out: TGI
[9] = molecular target: RAC-gamma serine/threonine-protein kinase (Homo sapiens, UniProt Q9Y243); test: Induction of Akt3 (unknown origin) degradation
[10] = molecular target: TAR DNA-binding protein 43 (Mus musculus) (UniProt Q921F2); test: Induction of TDP-43 degradation in mouse N2a cells at 100 uM measured after 24 hrs by Western blot analysis relative to control; format: cell-based
[11] = molecular target: Microtubule-associated protein tau (Mus musculus) (UniProt P10637); test: Induction of tau degradation in mouse N2a cells at 150 uM measured after 24 hrs by Western blot analysis relative to control; format: cell-based
Microtubule-associated protein tau (Mus musculus), sequence (P10637 whole entry): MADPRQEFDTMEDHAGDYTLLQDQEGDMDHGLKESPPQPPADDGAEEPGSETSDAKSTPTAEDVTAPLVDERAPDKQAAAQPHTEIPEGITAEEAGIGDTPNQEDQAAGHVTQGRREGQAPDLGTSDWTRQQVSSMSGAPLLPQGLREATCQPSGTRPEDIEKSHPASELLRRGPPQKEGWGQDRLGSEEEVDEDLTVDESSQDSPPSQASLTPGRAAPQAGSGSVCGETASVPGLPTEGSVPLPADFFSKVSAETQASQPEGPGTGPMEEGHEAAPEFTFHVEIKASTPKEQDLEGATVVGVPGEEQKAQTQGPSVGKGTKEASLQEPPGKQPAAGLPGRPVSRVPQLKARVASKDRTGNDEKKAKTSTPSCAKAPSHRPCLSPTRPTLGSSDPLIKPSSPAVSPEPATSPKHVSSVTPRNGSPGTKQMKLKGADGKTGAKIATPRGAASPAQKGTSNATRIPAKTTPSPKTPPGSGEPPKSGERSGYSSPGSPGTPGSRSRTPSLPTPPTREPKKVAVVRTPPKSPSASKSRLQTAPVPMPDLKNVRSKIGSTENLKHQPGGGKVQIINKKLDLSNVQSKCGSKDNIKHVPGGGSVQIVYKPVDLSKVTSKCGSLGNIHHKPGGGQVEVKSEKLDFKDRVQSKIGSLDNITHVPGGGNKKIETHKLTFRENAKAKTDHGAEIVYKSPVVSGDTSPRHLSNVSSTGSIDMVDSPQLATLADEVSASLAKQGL

ALK tyrosine kinase receptor, sequence (Q9UM73 whole entry): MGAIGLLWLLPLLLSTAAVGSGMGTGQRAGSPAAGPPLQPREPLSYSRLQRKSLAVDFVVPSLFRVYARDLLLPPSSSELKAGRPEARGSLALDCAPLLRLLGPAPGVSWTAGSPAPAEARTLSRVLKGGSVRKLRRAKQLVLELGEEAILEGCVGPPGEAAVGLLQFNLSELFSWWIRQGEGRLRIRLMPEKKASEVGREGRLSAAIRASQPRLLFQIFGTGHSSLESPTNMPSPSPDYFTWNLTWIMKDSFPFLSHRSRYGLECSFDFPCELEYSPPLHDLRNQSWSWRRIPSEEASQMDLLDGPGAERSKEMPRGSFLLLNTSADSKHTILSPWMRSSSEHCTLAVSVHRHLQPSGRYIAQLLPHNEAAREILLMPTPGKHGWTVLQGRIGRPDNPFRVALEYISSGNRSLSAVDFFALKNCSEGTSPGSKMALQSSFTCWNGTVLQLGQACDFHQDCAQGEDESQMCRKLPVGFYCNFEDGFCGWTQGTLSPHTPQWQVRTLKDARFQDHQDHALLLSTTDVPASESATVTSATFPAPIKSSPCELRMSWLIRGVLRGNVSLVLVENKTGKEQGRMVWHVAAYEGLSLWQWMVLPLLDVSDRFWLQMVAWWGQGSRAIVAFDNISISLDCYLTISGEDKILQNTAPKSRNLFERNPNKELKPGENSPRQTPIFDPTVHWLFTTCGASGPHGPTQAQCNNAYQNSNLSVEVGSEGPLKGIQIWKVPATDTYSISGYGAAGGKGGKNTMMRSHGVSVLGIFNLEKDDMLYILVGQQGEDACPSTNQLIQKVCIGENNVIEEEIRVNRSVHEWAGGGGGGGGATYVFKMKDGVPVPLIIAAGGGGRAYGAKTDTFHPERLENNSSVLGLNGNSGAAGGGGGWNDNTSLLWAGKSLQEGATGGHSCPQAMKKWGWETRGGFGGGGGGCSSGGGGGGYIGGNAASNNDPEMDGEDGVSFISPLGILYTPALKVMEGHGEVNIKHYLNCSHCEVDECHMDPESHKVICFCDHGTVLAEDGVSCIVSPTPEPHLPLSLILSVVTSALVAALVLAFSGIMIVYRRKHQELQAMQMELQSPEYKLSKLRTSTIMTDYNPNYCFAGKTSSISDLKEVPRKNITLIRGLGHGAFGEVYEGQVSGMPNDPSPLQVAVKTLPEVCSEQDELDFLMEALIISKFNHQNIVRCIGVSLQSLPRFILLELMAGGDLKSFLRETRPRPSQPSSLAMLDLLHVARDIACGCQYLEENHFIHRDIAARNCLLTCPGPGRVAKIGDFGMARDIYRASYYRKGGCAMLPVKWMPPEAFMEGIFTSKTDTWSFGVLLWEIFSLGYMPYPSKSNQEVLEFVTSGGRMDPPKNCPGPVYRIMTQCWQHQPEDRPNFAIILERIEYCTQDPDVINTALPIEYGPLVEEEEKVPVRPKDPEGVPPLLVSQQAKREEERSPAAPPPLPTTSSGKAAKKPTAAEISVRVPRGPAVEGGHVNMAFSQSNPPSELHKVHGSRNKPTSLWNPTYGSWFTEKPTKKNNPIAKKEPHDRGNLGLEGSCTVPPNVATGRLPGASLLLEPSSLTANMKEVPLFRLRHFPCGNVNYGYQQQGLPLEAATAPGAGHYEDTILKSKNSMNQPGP
RAC-alpha serine/threonine-protein kinase, sequence (P31749 whole entry): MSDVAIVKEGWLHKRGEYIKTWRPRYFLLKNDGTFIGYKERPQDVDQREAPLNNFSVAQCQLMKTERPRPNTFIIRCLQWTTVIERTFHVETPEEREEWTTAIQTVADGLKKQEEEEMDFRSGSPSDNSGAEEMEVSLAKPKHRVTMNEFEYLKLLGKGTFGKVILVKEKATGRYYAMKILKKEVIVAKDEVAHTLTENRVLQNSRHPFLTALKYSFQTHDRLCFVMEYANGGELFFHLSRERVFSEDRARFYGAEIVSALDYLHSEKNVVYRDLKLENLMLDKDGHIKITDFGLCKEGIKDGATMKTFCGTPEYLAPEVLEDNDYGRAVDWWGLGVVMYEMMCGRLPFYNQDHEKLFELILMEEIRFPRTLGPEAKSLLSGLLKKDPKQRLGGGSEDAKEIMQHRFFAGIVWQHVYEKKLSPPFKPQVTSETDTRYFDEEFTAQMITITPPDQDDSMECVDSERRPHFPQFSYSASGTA
RAC-gamma serine/threonine-protein kinase, sequence (Q9Y243 whole entry): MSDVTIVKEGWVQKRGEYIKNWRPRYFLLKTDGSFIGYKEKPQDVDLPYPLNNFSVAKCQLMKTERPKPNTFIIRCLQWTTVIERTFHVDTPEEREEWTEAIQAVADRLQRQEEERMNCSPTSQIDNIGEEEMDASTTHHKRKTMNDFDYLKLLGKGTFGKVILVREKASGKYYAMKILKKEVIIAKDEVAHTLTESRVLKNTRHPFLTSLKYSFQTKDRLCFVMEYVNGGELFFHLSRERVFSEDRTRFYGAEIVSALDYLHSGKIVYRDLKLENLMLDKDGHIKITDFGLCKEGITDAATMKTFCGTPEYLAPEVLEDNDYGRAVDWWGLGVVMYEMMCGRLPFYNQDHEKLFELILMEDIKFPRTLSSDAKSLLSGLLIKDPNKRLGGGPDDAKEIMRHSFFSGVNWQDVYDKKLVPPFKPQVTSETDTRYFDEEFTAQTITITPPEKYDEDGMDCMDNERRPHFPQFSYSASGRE
TAR DNA-binding protein 43 (Mus musculus), sequence (Q921F2 whole entry): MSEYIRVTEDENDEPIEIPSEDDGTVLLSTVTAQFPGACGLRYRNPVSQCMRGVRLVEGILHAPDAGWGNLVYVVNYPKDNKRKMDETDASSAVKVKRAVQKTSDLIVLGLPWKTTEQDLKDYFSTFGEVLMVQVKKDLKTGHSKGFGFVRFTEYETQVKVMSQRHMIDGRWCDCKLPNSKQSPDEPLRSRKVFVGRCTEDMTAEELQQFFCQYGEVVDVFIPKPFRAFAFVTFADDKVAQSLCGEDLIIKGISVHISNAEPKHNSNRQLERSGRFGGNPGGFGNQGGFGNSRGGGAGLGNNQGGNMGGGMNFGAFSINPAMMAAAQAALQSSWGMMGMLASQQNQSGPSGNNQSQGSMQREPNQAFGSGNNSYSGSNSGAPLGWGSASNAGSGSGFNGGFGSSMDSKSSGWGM

SMILES: C=CC(=O)Nc1cc(-c2nn(C3CCN(CCNC(=O)[C@H](C)CCC45CC6CC(CC(C6)C4)C5)CC3)c3ncnc(N)c23)ccc1Oc1ccccc1
EC50 [2]: 0.8 µM
EC50 (OVCAR-8): 0.8 µM
EC50 [3]: 0.8 µM

SMILES: COc1cc(Cc2cnc(N)nc2N)cc(OC)c1OCC(=O)NCCCCCCNC(=O)[C@@H](CCCN/C(=N\C(=O)OC(C)(C)C)NC(=O)OC(C)(C)C)NC(=O)OC(C)(C)C
Activity [4]: 60%
Activity [5]: 80%

SMILES: C=C(CC)C(=O)c1ccc(OCC(=O)O)c(Cl)c1Cl
Activity [6]: 75%

SMILES: COc1cc(N2CCN(CCCCCCCCCCCCNC(=O)CC34CC5CC(CC(C5)C3)C4)CC2)ccc1Nc1ncc2c(C)cc(=O)n(-c3cccc(NC(=O)C4CC4)c3)c2n1
DC50 [7]: > 1 µM
DC50 [8]: > 1 µM
inhibition in vivo at 20 mg/kg (PC-9): 75%
DC50 [9]: 0.013 µM

SMILES: CC[C@H](C)[C@H](NC(=O)CNC(=O)[C@H](CCCCN)NC(=O)[C@@H](NC(=O)[C@@H](NC(=O)[C@H](CC(C)C)NC(=O)[C@H](CC(=O)O)NC(=O)[C@H](CCC(=O)O)NC(=O)[C@H](CO)NC(=O)CNC(=O)[C@H](CO)NC(=O)CNC(=O)[C@H](CCCCN)NC(=O)C12CC3CC(CC(NC(=O)C45CC6CC(CC(C6)C4)C5)(C3)C1)C2)[C@@H](C)CC)[C@@H](C)CC)C(=O)N[C@@H](CO)C(=O)N[C@H](C(=O)NCC(=O)N[C@@H](CCCNC(=N)N)C(=O)N[C@@H](CCCCN)C(=O)N[C@@H](CCCCN)C(=O)N[C@@H](CCCNC(=N)N)C(=O)N[C@@H](CCCNC(=N)N)C(=O)N[C@@H](CCC(N)=O)C(=O)N[C@@H](CCCNC(=N)N)C(=O)N[C@@H](CCCNC(=N)N)C(=O)N[C@@H](CCCNC(=N)N)C(N)=O)C(C)C (Adamantane1carbonyl-[X1]KGSGSEDLIIKGISVGRKKRRQRRR-NH2)
Activity [10]: 80%

SMILES: C[C@H](NC(=O)[C@H](CC(=O)O)NC(=O)[C@H](CCC(N)=O)NC(=O)[C@H](Cc1ccc(O)cc1)NC(=O)[C@H](CCC(N)=O)NC(=O)[C@H](CCC(N)=O)NC(=O)[C@H](Cc1ccc(O)cc1)NC(=O)C12CC3CC(CC(C3)C1)C2)C(=O)N[C@H](C(=O)N[C@@H](C)C(=O)N[C@@H](CC(=O)O)C(=O)N[C@@H](CCC(=O)O)C(=O)N[C@@H](CCC(N)=O)C(=O)NCC(=O)N[C@H](CCCNC(=N)N)C(=O)N[C@H](CCCNC(=N)N)C(=O)N[C@H](CCCNC(=N)N)C(=O)N[C@H](CCCNC(=N)N)C(=O)N[C@H](CCCNC(=N)N)C(=O)N[C@H](CCCNC(=N)N)C(=O)N[C@H](CCCNC(=N)N)C(=O)N[C@H](CCCNC(=N)N)C(N)=O)[C@@H](C)O
Activity [11]: 88%

More lines, main results first:

DC50 [1]: 0.134 µM
SMILES: CCc1cc2c(cc1N1CCN(CCCCC(=O)NCC3CC4C=CC3C4)CC1)C(C)(C)c1[nH]c3cc(C#N)ccc3c1C2=O (stereo not drawn)
inhibition in vivo at 20 mg/kg (NCI-H3122): 58%

GI50 (HCC1954): 1.1 µM
GI50 (HCC1187): 1.1 µM
GI50 (KARPAS-422): 1.1 µM
GI50 (SU-DHL-8): 1.1 µM
GI50 (MCF7): 1.1 µM
GI50 (BT-549): 1.1 µM
SMILES: Cc1cc(C)c(CNC(=O)c2cc(-c3ccc(N4CCN(CCNC(=O)CC56CC7CC(CC(C7)C5)C6)CC4)nc3)cc3c2cnn3C(C)C)c(=O)[nH]1
GI50 (HCC70): 1.1 µM

DC50 [1]: 0.089 µM
SMILES: COc1cc(N2CCN(CC(=O)NCC3CC4C=CC3C4)CC2)ccc1Nc1ncc(Cl)c(Nc2ccccc2P(C)(C)=O)n1 (stereo not drawn)

DC50 [1]: 0.314 µM
SMILES: Cc1cc(Nc2ncc(Cl)c(Nc3ccccc3S(=O)(=O)C(C)C)n2)c(OC(C)C)cc1C1CCN(CC(=O)NCC2CC3C=CC2C3)CC1 (stereo not drawn)
